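Interpolation was linear, between the two tested concentrations surrounding the appropriate level; five concentrations were tested over 48 hours in 96-well plates. The concentration for 50% growth inhibition is given as GI50. The concentration for full growth arrest is given as TGI.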
How the values were obtained:
Experiment in all cases: NCI anticancer screen, dose series, 48 h
HS 578T breast = tested on: HS 578T breast
RPMI-8226 leukemia = tested on: RPMI-8226 leukemia
TK-10 renal = tested on: TK-10 renal
A549 NSCLC = tested on: A549 NSCLC
MDA-MB-435 = tested on: MDA-MB-435
SK-MEL-5 melanoma = tested on: SK-MEL-5 melanoma
SF-268 CNS = tested on: SF-268 CNS
K-562 leukemia = tested on: K-562 leukemia
NCI-H460 lung = tested on: NCI-H460 lung
IGROV1 ovarian = tested on: IGROV1 ovarian
UO-31 renal = tested on: UO-31 renal
SK-OV-3 ovarian = tested on: SK-OV-3 ovarian
EKVX NSCLC = tested on: EKVX NSCLC
SK-MEL-2 melanoma = tested on: SK-MEL-2 melanoma
MCF7 breast = tested on: MCF7 breast
U251 CNS = tested on: U251 CNS
HOP-92 NSCLC = tested on: HOP-92 NSCLC
T-47D breast = tested on: T-47D breast
HCT-116 colon = tested on: HCT-116 colon
CAKI-1 renal = tested on: CAKI-1 renal
COLO 205 colon = tested on: COLO 205 colon
DU-145 prostate = tested on: DU-145 prostate
MOLT-4 leukemia = tested on: MOLT-4 leukemia
KM12 colon = tested on: KM12 colon
CCRF-CEM leukemia = tested on: CCRF-CEM leukemia
SR leukemia = tested on: SR leukemia
SW-620 colon = tested on: SW-620 colon
UACC-62 melanoma = tested on: UACC-62 melanoma
SK-MEL-28 melanoma = tested on: SK-MEL-28 melanoma
NCI-H23 lung = tested on: NCI-H23 lung
HOP-62 NSCLC = tested on: HOP-62 NSCLC
SN12C renal = tested on: SN12C renal
NCI-H522 lung = tested on: NCI-H522 lung
HT29 colon = tested on: HT29 colon
OVCAR-3 ovarian = tested on: OVCAR-3 ovarian
NCI-H226 lung = tested on: NCI-H226 lung
M14 melanoma = tested on: M14 melanoma
MALME-3M melanoma = tested on: MALME-3M melanoma
MDA-MB-231 breast = tested on: MDA-MB-231 breast
NCI/ADR-RES ovarian = tested on: NCI/ADR-RES ovarian
OVCAR-5 ovarian = tested on: OVCAR-5 ovarian
SNB-19 CNS = tested on: SNB-19 CNS
SF-295 CNS = tested on: SF-295 CNS
PC-3 prostate = tested on: PC-3 prostate
LOX IMVI melanoma = tested on: LOX IMVI melanoma
HCT-15 colon = tested on: HCT-15 colon
ACHN renal = tested on: ACHN renal
OVCAR-4 ovarian = tested on: OVCAR-4 ovarian
HCC-2998 colon = tested on: HCC-2998 colon
OVCAR-8 ovarian = tested on: OVCAR-8 ovarian
UACC-257 melanoma = tested on: UACC-257 melanoma
786-0 renal = tested on: 786-0 renal

With `O=CCC(O)C(O)C(O)CO` (centres undefined) as the molecule, how does the GI50 (HS 578T breast) read?
The GI50 was over 100 µM.

And the TGI (HS 578T breast)?
The TGI was over 100 µM.

What about the GI50 (RPMI-8226 leukemia) of the same molecule?
The GI50 was over 100 µM.

And the TGI (RPMI-8226 leukemia)?
The TGI was over 100 µM.

What about the GI50 (TK-10 renal) of the same molecule?
Its GI50 is over 100 µM.

What about the TGI (TK-10 renal) of the same molecule?
Its TGI is over 100 µM.

What about the GI50 (A549 NSCLC) of the same molecule?
The GI50 was over 100 µM.

And the TGI (A549 NSCLC)?
Its TGI is over 100 µM.

And the GI50 (MDA-MB-435)?
The GI50 was over 100 µM.

What about the TGI (MDA-MB-435) of the same molecule?
The TGI was over 100 µM.

What about the GI50 (SK-MEL-5 melanoma) of the same molecule?
The GI50 was over 100 µM.

What about the TGI (SK-MEL-5 melanoma) of the same molecule?
Its TGI is over 100 µM.

And the GI50 (SF-268 CNS)?
The GI50 was over 100 µM.

And the TGI (SF-268 CNS)?
Its TGI is over 100 µM.

And the GI50 (K-562 leukemia)?
Its GI50 is over 100 µM.

And the TGI (K-562 leukemia)?
The TGI was over 100 µM.

And the GI50 (NCI-H460 lung)?
The GI50 was over 100 µM.

What about the TGI (NCI-H460 lung) of the same molecule?
The TGI was over 100 µM.

And the GI50 (IGROV1 ovarian)?
Its GI50 is over 100 µM.

And the TGI (IGROV1 ovarian)?
The TGI was over 100 µM.

And the GI50 (UO-31 renal)?
Its GI50 is over 100 µM.

What about the TGI (UO-31 renal) of the same molecule?
Its TGI is over 100 µM.

And the GI50 (SK-OV-3 ovarian)?
The GI50 was over 100 µM.

And the TGI (SK-OV-3 ovarian)?
The TGI was over 100 µM.

What about the GI50 (EKVX NSCLC) of the same molecule?
The GI50 was over 100 µM.

And the TGI (EKVX NSCLC)?
The TGI was over 100 µM.

And the GI50 (SK-MEL-2 melanoma)?
The GI50 was over 100 µM.

What about the TGI (SK-MEL-2 melanoma) of the same molecule?
Its TGI is over 100 µM.

What about the GI50 (MCF7 breast) of the same molecule?
The GI50 was over 100 µM.

And the TGI (MCF7 breast)?
The TGI was over 100 µM.

What about the GI50 (U251 CNS) of the same molecule?
Its GI50 is over 100 µM.

And the TGI (U251 CNS)?
Its TGI is over 100 µM.

What about the GI50 (HOP-92 NSCLC) of the same molecule?
The GI50 was 1.74 µM.

And the TGI (HOP-92 NSCLC)?
The TGI was over 100 µM.

And the GI50 (T-47D breast)?
The GI50 was over 100 µM.

And the TGI (T-47D breast)?
Its TGI is over 100 µM.

And the GI50 (HCT-116 colon)?
Its GI50 is over 100 µM.

And the TGI (HCT-116 colon)?
The TGI was over 100 µM.

And the GI50 (CAKI-1 renal)?
The GI50 was over 100 µM.

And the TGI (CAKI-1 renal)?
The TGI was over 100 µM.

What about the GI50 (COLO 205 colon) of the same molecule?
Its GI50 is over 100 µM.

And the TGI (COLO 205 colon)?
Its TGI is over 100 µM.

What about the GI50 (DU-145 prostate) of the same molecule?
Its GI50 is over 100 µM.

And the TGI (DU-145 prostate)?
Its TGI is over 100 µM.

And the GI50 (MOLT-4 leukemia)?
The GI50 was over 100 µM.

What about the TGI (MOLT-4 leukemia) of the same molecule?
Its TGI is over 100 µM.

And the GI50 (KM12 colon)?
Its GI50 is over 100 µM.

What about the TGI (KM12 colon) of the same molecule?
Its TGI is over 100 µM.

What about the GI50 (CCRF-CEM leukemia) of the same molecule?
The GI50 was over 100 µM.

And the TGI (CCRF-CEM leukemia)?
The TGI was over 100 µM.

What about the GI50 (SR leukemia) of the same molecule?
The GI50 was over 100 µM.

What about the TGI (SR leukemia) of the same molecule?
The TGI was over 100 µM.

And the GI50 (SW-620 colon)?
The GI50 was over 100 µM.

What about the TGI (SW-620 colon) of the same molecule?
Its TGI is over 100 µM.

What about the GI50 (UACC-62 melanoma) of the same molecule?
The GI50 was over 100 µM.

And the TGI (UACC-62 melanoma)?
The TGI was over 100 µM.

What about the GI50 (SK-MEL-28 melanoma) of the same molecule?
Its GI50 is over 100 µM.

And the TGI (SK-MEL-28 melanoma)?
The TGI was over 100 µM.

And the GI50 (NCI-H23 lung)?
The GI50 was over 100 µM.

And the TGI (NCI-H23 lung)?
The TGI was over 100 µM.

What about the GI50 (HOP-62 NSCLC) of the same molecule?
Its GI50 is over 100 µM.

What about the TGI (HOP-62 NSCLC) of the same molecule?
The TGI was over 100 µM.

And the GI50 (SN12C renal)?
The GI50 was over 100 µM.

What about the TGI (SN12C renal) of the same molecule?
The TGI was over 100 µM.

What about the GI50 (NCI-H522 lung) of the same molecule?
The GI50 was over 100 µM.

And the TGI (NCI-H522 lung)?
Its TGI is over 100 µM.

And the GI50 (HT29 colon)?
The GI50 was over 100 µM.

And the TGI (HT29 colon)?
The TGI was over 100 µM.

And the GI50 (OVCAR-3 ovarian)?
The GI50 was over 100 µM.

What about the TGI (OVCAR-3 ovarian) of the same molecule?
Its TGI is over 100 µM.

What about the GI50 (NCI-H226 lung) of the same molecule?
The GI50 was over 100 µM.

And the TGI (NCI-H226 lung)?
The TGI was over 100 µM.

And the GI50 (M14 melanoma)?
Its GI50 is over 100 µM.

And the TGI (M14 melanoma)?
Its TGI is over 100 µM.

And the GI50 (MALME-3M melanoma)?
The GI50 was over 100 µM.

What about the TGI (MALME-3M melanoma) of the same molecule?
The TGI was over 100 µM.

What about the GI50 (MDA-MB-231 breast) of the same molecule?
Its GI50 is over 100 µM.

What about the TGI (MDA-MB-231 breast) of the same molecule?
The TGI was over 100 µM.

And the GI50 (NCI/ADR-RES ovarian)?
Its GI50 is over 100 µM.

What about the TGI (NCI/ADR-RES ovarian) of the same molecule?
Its TGI is over 100 µM.

And the GI50 (OVCAR-5 ovarian)?
Its GI50 is over 100 µM.

And the TGI (OVCAR-5 ovarian)?
The TGI was over 100 µM.

And the GI50 (SNB-19 CNS)?
Its GI50 is over 100 µM.

And the TGI (SNB-19 CNS)?
Its TGI is over 100 µM.

And the GI50 (SF-295 CNS)?
The GI50 was over 100 µM.

What about the TGI (SF-295 CNS) of the same molecule?
The TGI was over 100 µM.

What about the GI50 (PC-3 prostate) of the same molecule?
Its GI50 is over 100 µM.

What about the TGI (PC-3 prostate) of the same molecule?
Its TGI is over 100 µM.

What about the GI50 (LOX IMVI melanoma) of the same molecule?
Its GI50 is over 100 µM.

What about the TGI (LOX IMVI melanoma) of the same molecule?
Its TGI is over 100 µM.

And the GI50 (HCT-15 colon)?
The GI50 was over 100 µM.

What about the TGI (HCT-15 colon) of the same molecule?
The TGI was over 100 µM.

And the GI50 (ACHN renal)?
Its GI50 is over 100 µM.

And the TGI (ACHN renal)?
Its TGI is over 100 µM.

And the GI50 (OVCAR-4 ovarian)?
Its GI50 is over 100 µM.

What about the TGI (OVCAR-4 ovarian) of the same molecule?
The TGI was over 100 µM.

What about the GI50 (HCC-2998 colon) of the same molecule?
The GI50 was over 100 µM.

What about the TGI (HCC-2998 colon) of the same molecule?
Its TGI is over 100 µM.

What about the GI50 (OVCAR-8 ovarian) of the same molecule?
The GI50 was over 100 µM.

What about the TGI (OVCAR-8 ovarian) of the same molecule?
The TGI was over 100 µM.

And the GI50 (UACC-257 melanoma)?
The GI50 was 55.6 µM.

And the TGI (UACC-257 melanoma)?
The TGI was over 100 µM.

What about the GI50 (786-0 renal) of the same molecule?
Its GI50 is over 100 µM.

What about the TGI (786-0 renal) of the same molecule?
The TGI was over 100 µM.

Source: PubChem BioAssay (NCI)
